This note sets out measurements from patent publication US11135234B2, “Effective aminoglycoside antibiotic for multidrug-resistant bacteria” (MICROBIAL CHEMISTRY RESEARCH FOUNDATION, priority 2015, dated 2021).

≈ marks a conversion by molar mass, not a printed value.

One assay concerns S. aureus MF490. Description: MIC, agar plate dilution method, S. aureus MF490. Type of assay: cell-based, Staphylococcus aureus. The settings on record: for MIC: Staphylococcus aureus, MRSA, read-out: minimal inhibitory concentration (MIC); for minimal inhibitory concentration (MIC): S. aureus MF490, MRSA. The procedure, abridged: (§1)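 MIC values, expressed in μg/mL, come from an agar plate dilution assay run as the Japan Society of Chemotherapy describes.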

The test system of another assay is P. aeruginosa MSC17707. Description: MIC, agar plate dilution method, P. aeruginosa MSC17707. The conditions noted are these: for MIC: Pseudomonas aeruginosa, MSC17707, P. aeruginosa MSC17707, AMK-resistant, read-out: minimal inhibitory concentration (MIC); for minimal inhibitory concentration (MIC): P. aeruginosa MSC17707, AMK-resistant. The format is cell-based, Pseudomonas aeruginosa. The gist of the method: as §1

Another assay deals with S. aureus RN4220/pMS520. The experiment in a line: MIC, agar plate dilution method, S. aureus RN4220/pMS520. The settings on record: for MIC: Staphylococcus aureus, MRSA, read-out: minimal inhibitory concentration (MIC), S. aureus RN4220/pMS520, MRSA; for minimal inhibitory concentration (MIC): S. aureus RN4220/pMS520, MRSA. Type of assay: cell-based, Staphylococcus aureus. The gist of the method: as §1

Another assay deals with S. aureus RN4220. The experiment in a line: MIC, agar plate dilution method, S. aureus RN4220. The settings on record: for MIC: Staphylococcus aureus, RN4220, S. aureus RN4220, Sensitive bacterium, read-out: minimal inhibitory concentration (MIC); for minimal inhibitory concentration (MIC): S. aureus RN4220, Sensitive bacterium. The format is cell-based, Staphylococcus aureus. The gist of the method:
as §1

The next assay concerns P. aeruginosa MSC01035. Description: MIC, agar plate dilution method, P. aeruginosa MSC01035. Type of assay: cell-based, Pseudomonas aeruginosa. The conditions noted are these: P. aeruginosa MSC01035, ABK-resistant; for MIC: Pseudomonas aeruginosa, read-out: minimal inhibitory concentration (MIC). The procedure, abridged:
as §1

Assay [1] deals with K. pneumoniae ATCC BAA-2146. Description: MIC, agar plate dilution method, K. pneumoniae ATCC BAA-2146. Type of assay: cell-based, Klebsiella pneumoniae. The settings on record: for MIC: Klebsiella pneumoniae, ATCCBAA2146, K. pneumoniae ATCC BAA-2146, NDM-producing strain, read-out: minimal inhibitory concentration (MIC); for minimal inhibitory concentration (MIC): K. pneumoniae ATCC BAA-2146, NDM-producing strain. The procedure, abridged: as §1

Assay [2] deals with A. baumannii ATCC BAA-1710. Description: MIC, agar plate dilution method, A. baumannii ATCC BAA-1710. Type of assay: cell-based, Acinetobacter baumannii. The conditions noted are these: for MIC: Acinetobacter baumannii, ATCCBAA1710, A. baumannii ATCC BAA-1710, MDRA, read-out: minimal inhibitory concentration (MIC); for minimal inhibitory concentration (MIC): A. baumannii ATCC BAA-1710, MDRA. The procedure, abridged:
as §1

The subject of assay [3] is K. pneumoniae ATCC BAA-1705. Description: MIC, agar plate dilution method, K. pneumoniae ATCC BAA-1705. The format is cell-based, Klebsiella pneumoniae. The conditions noted are these: for MIC: Klebsiella pneumoniae, ATCCBAA1705, K. pneumoniae ATCC BAA-1705, KPC-producing strain, read-out: minimal inhibitory concentration (MIC); for minimal inhibitory concentration (MIC): K. pneumoniae ATCC BAA-1705, KPC-producing strain. The gist of the method:
as §1

The next assay relates to E. faecium ATCC19434. Description: MIC, agar plate dilution method, E. faecium ATCC19434. Type of assay: cell-based, Enterococcus faecium. The settings on record: for MIC: Enterococcus faecium, ATCC19434, E. faecium ATCC19434, read-out: minimal inhibitory concentration (MIC); for minimal inhibitory concentration (MIC): E. faecium ATCC19434. The gist of the method: as §1
A further assay deals with E. coli JM109/pMW218. Description: MIC, agar plate dilution method, E. coli JM109/pMW218. Type of assay: cell-based, Escherichia coli. The conditions noted are these: for MIC: Escherichia coli, JM109/PMW218, E. coli JM109/pMW218, Sensitive bacterium, read-out: minimal inhibitory concentration (MIC); for minimal inhibitory concentration (MIC): E. coli JM109/pMW218, Sensitive bacterium. The gist of the method: as §1

Another assay relates to S. marcescens GN6944. Description: MIC, agar plate dilution method, S. marcescens GN6944. Type of assay: cell-based, Serratia marcescens. The conditions noted are these: S. marcescens GN6944, GM-resistant; for MIC: Serratia marcescens, read-out: minimal inhibitory concentration (MIC). The gist of the method: as §1
Another assay concerns P. aeruginosa PAO1. The experiment in a line: MIC, agar plate dilution method, P. aeruginosa PAO1. The format is cell-based, Pseudomonas aeruginosa. The settings on record: for MIC: Pseudomonas aeruginosa, PAO1, P. aeruginosa PAO1, Sensitive bacterium, read-out: minimal inhibitory concentration (MIC); for minimal inhibitory concentration (MIC): P. aeruginosa PAO1, Sensitive bacterium. The gist of the method:
as §1

The test system of a further assay is P. aeruginosa PAO1/GN315. The experiment in a line: MIC, agar plate dilution method, P. aeruginosa PAO1/GN315. The format is cell-based, Pseudomonas aeruginosa. The settings on record: for MIC: Pseudomonas aeruginosa, read-out: minimal inhibitory concentration (MIC), P. aeruginosa PAO1/GN315, AMK-resistant; for minimal inhibitory concentration (MIC): P. aeruginosa PAO1/GN315, AMK-resistant. The gist of the method:
as §1

Another assay relates to S. marcescens TH-0447. The experiment in a line: MIC, agar plate dilution method, S. marcescens TH-0447. The settings on record: for MIC: Serratia marcescens, TH0447, S. marcescens TH-0447, AMK-resistant, read-out: minimal inhibitory concentration (MIC); for minimal inhibitory concentration (MIC): S. marcescens TH-0447, AMK-resistant. Type of assay: cell-based, Serratia marcescens. The gist of the method: as §1

Regarding `CNC1C(O[C@H]2OC(CO)[C@@H](N)[C@H](O)C2N)O[C@H]2CC(N)[C@@H](O[C@@H]3C(N)C[C@@H](N)C(O)[C@H]3O)OC2C1O` (some centres unmarked) [Compound G7, 2″-amino-2″-deoxy-2″,3″-diepiapramycin], the MIC with S. aureus MF490 is 16 µg/mL (≈ 29.7 µM); in the assay with P. aeruginosa MSC17707 it was 8 µg/mL (≈ 14.9 µM); in the assay with S. aureus RN4220/pMS520, 8 µg/mL (≈ 14.9 µM); in the assay with S. aureus RN4220, 4 µg/mL (≈ 7.43 µM); in the assay on P. aeruginosa MSC01035, 16 µg/mL (≈ 29.7 µM); in assay [1], 4 µg/mL (≈ 7.43 µM). Moreover, the MIC in [2] was 8 µg/mL (≈ 14.9 µM); in [3], 2 µg/mL (≈ 3.71 µM); in the assay with E. faecium ATCC19434, 16 µg/mL (≈ 29.7 µM); in the assay on E. coli JM109/pMW218 it was 1 µg/mL (≈ 1.86 µM); in the assay with S. marcescens GN6944, 8 µg/mL (≈ 14.9 µM); in the assay with P. aeruginosa PAO1 it was 8 µg/mL (≈ 14.9 µM). For the same molecule, the MIC in the assay on P. aeruginosa PAO1/GN315 and with S. marcescens TH-0447 was 8 µg/mL (≈ 14.9 µM) throughout.

Take `CNC1C(O[C@H]2OC(CO)[C@@H](N)[C@H](N)C2O)O[C@H]2CC(N)[C@@H](O[C@@H]3C(N)C[C@@H](N)C(O)[C@H]3O)OC2C1O` (some centres unmarked) [Compound G8, 3″-amino-3″-deoxyapramycin]: the MIC with S. aureus MF490 is 32 µg/mL (≈ 59.4 µM); in the assay on P. aeruginosa MSC17707 it was 16 µg/mL (≈ 29.7 µM); with S. aureus RN4220/pMS520 it was 8 µg/mL (≈ 14.9 µM); in the assay on S. aureus RN4220, 8 µg/mL (≈ 14.9 µM); in the assay with P. aeruginosa MSC01035, 16 µg/mL (≈ 29.7 µM); in assay [1], 4 µg/mL (≈ 7.43 µM). Besides, the MIC in assay [2] was found to be 16 µg/mL (≈ 29.7 µM); in [3] it was 4 µg/mL (≈ 7.43 µM); in the assay on E. faecium ATCC19434, 32 µg/mL (≈ 59.4 µM); in the assay with E. coli JM109/pMW218, 2 µg/mL (≈ 3.71 µM); in the assay with S. marcescens GN6944, 16 µg/mL (≈ 29.7 µM); in the assay with P. aeruginosa PAO1, 8 µg/mL (≈ 14.9 µM). Besides, the MIC in the assay on P. aeruginosa PAO1/GN315 and in the assay on S. marcescens TH-0447 was 16 µg/mL (≈ 29.7 µM) throughout.

Turning to `CN[C@@H]1[C@@H](O[C@H]2O[C@H](CO)[C@@H](N)[C@@H](O)[C@H]2O)O[C@H]2C[C@@H](N)[C@@H](O[C@H]3[C@H](O)[C@@H](O)[C@H](N)C[C@@H]3N)O[C@@H]2[C@@H]1O` [Compound H3, 3″-epiapramycin], the “minimal inhibitory concentration (MIC)” value in the assay with S. aureus MF490 was 8 µg/mL (≈ 14.8 µM); with P. aeruginosa MSC17707, 8 µg/mL (≈ 14.8 µM); with S. aureus RN4220/pMS520 it was 4 µg/mL (≈ 7.41 µM); in the assay on S. aureus RN4220 it was 4 µg/mL (≈ 7.41 µM); in the assay on P. aeruginosa MSC01035 it was 8 µg/mL (≈ 14.8 µM); in [1] it was 2 µg/mL (≈ 3.71 µM). Besides, the “minimal inhibitory concentration (MIC)” value turned out to be 8 µg/mL (≈ 14.8 µM) in [2]; 2 µg/mL (≈ 3.71 µM) in assay [3]; 16 µg/mL (≈ 29.7 µM) in the assay with E. faecium ATCC19434; 2 µg/mL (≈ 3.71 µM) with E. coli JM109/pMW218; 8 µg/mL (≈ 14.8 µM) in the assay with S. marcescens GN6944; 8 µg/mL (≈ 14.8 µM) in the assay with P. aeruginosa PAO1. In addition, the “minimal inhibitory concentration (MIC)” value with P. aeruginosa PAO1/GN315 and in the assay with S. marcescens TH-0447 was 8 µg/mL (≈ 14.8 µM) in each case.

For `CNC1C(OC2OC(CO)C(N)C(O)C2O)OC2CC(N)C(OC3C(N)CC(N)C(O)C3O)OC2C1O` (centres unmarked) [Compound I3, 2″,3″-diepiapramycin], the “minimal inhibitory concentration (MIC)” value was found to be 32 µg/mL (≈ 59.3 µM) with S. aureus MF490; 32 µg/mL (≈ 59.3 µM) with P. aeruginosa MSC17707; 8 µg/mL (≈ 14.8 µM) in the assay on S. aureus RN4220/pMS520; 8 µg/mL (≈ 14.8 µM) in the assay on S. aureus RN4220; 64 µg/mL (≈ 119 µM) with P. aeruginosa MSC01035; 4 µg/mL (≈ 7.41 µM) in [1]. Further, the “minimal inhibitory concentration (MIC)” value is 16 µg/mL (≈ 29.7 µM) in assay [2]; 4 µg/mL (≈ 7.41 µM) in assay [3]; 32 µg/mL (≈ 59.3 µM) in the assay on E. faecium ATCC19434; 4 µg/mL (≈ 7.41 µM) in the assay on E. coli JM109/pMW218; 16 µg/mL (≈ 29.7 µM) in the assay with S. marcescens GN6944; 16 µg/mL (≈ 29.7 µM) in the assay on P. aeruginosa PAO1. Also, the “minimal inhibitory concentration (MIC)” value in the assay with P. aeruginosa PAO1/GN315 and in the assay on S. marcescens TH-0447 was 32 µg/mL (≈ 59.3 µM) throughout.
